Molecular target: T1, mOREG olfactory receptor (Olfr73) (Mus musculus, UniProt Q920P2)
T1 construct: gene Or5d18; N-terminal fusion with the first 20 amino acids of rhodopsin (Rho20-mOREG); untagged mOREG also measured
T1 sequence (Q920P2 1-313): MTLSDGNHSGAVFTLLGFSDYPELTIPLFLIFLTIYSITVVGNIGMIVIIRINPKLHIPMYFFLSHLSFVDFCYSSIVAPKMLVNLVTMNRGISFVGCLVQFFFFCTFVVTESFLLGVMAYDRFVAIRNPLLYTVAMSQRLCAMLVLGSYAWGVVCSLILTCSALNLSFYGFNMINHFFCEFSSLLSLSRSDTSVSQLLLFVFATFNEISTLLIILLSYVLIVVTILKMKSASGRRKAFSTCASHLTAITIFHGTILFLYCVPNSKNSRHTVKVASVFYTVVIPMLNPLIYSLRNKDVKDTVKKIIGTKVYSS
Experiment: calcium imaging (fluo-4) in HEK293 cells co-expressing Rho-mOREG and olfactory CNG channel
Type: cell-based
Text: calcium imaging (fluo-4) in HEK293 cells co-expressing Rho-mOREG and olfactory CNG channel on mOREG olfactory receptor (Olfr73) | Responses to eugenol, a ligand for mOREG, were detected in cells co-expressing Rho-mOREG and CNG

`C=CCc1ccc(O)c(OC)c1` [eugenol] showed an EC50 of 20.8 µM.

Reference: paper PMC520810, “Endoplasmic reticulum degradation impedes olfactory G-protein coupled receptor functional expression” (BMC Cell Biology, 2004)
